Experimental data: US20220387365A1, “TUCARESOL DERIVATIVES AND USES THEREOF” (BeyondSpring Pharmaceuticals, Inc., priority 2019, published 2022)
Values joined by “and” are separate entries in the source; they are usually repeats but may differ in a detail not shown here. Identical values can stand only once. Like-named read-outs stand apart in the source and are kept apart here. Marks after values point to notes of the source that are not given here.

Assays:
[1] = Intravenous and oral dosing pharmacokinetic screen, plasma concentration by LC/MS/MS; parameters: species or system C57BL/6 mice; conditions: male, C57BL/6, mouse, in vivo
Procedure: Tucaresol, Compound B02, Compound C01, Compound C02-1, and Compound C02 were dosed once, by IV bolus (3 mg/kg in 20% hydroxyprophyl-13-cyclodextrin with 1 eq NaOH) or PO (10 mg/kg in 1% carboxymethylcellulose/0.1% tween-80 in water), to non-fasted male C57BL/6 mice. Animals were bled from the dorsal metatarsal vein (from the heart for 24 hour time point) for K2-EDTA plasma 0.083 (for IV only), 0.25, 0.5, 1, 2, 4, 8, and 24 hours after dosing. The plasma concentration of the dosed tucaresol or compound were measured by LC/MS/MS (I-CMS-8060 instrument for MS). PK parameters were then calculated with WinNonlin 6.1. For Compounds C01, CO2 and CO2-1, stability in C57BL/6 K2EDTA plasma was also evaluated at 22° C. over 1 hour by utilizing LC.

[2] = Pharmacokinetics of tucaresol after a single dose in healthy subjects
[3] = iv, 3 mg/kg, Compound C02 concentration
[4] = iv, 3 mg/kg, Compound C02 concentration, Mean
[5] = plasma, single dose 400 mg, single subjects
[6] = plasma, single dose 800 mg, single subjects
[7] = plasma, single dose 1200 mg, single subjects
[8] = plasma, single dose 2000 mg, single subjects
[9] = plasma, single dose 2800 mg, single subjects
[10] = plasma, single dose 3600 mg, single subjects
[11] = iv, 3 mg/kg, Tucaresol concentration
[12] = iv, 3 mg/kg, Tucaresol concentration, Mean
[13] = po, 10 mg/kg, Tucaresol concentration
[14] = po, 10 mg/kg, Tucaresol concentration, Mean

## O=Cc1c(OCc2ccc(C(=O)O)cc2)cccc1OC1O[C@H](CO)[C@@H](O)[C@H](O)[C@H]1O (stereo partly drawn) [Compound C02]
[1]
  AUClast/D: 947 ng·h/mL per mg/kg
  T1/2: 3.94 h
  Tmax: 0.500 h
[1]; iv, 3 mg/kg, 0.083 h
  Tucaresol concentration, Mean: 28.3 ng/mL
[1]; iv, 3 mg/kg, 0.25 h
  Tucaresol concentration, Mean: 128 ng/mL
[1]; iv, 3 mg/kg, 0.5 h
  Tucaresol concentration, Mean: 165 ng/mL
[1]; iv, 3 mg/kg, 1 h
  Tucaresol concentration, Mean: 123 ng/mL
[1]; iv, 3 mg/kg, 2 h
  Tucaresol concentration, Mean: 114 ng/mL
[1]; iv, 3 mg/kg, 4 h
  Tucaresol concentration, Mean: 76.1 ng/mL
[1]; iv, 3 mg/kg, 8 h
  Tucaresol concentration, Mean: 37.1 ng/mL
[1]; [3]
  concentration at 0.083 h: 1830 ng/mL
  concentration at 0.25 h: 537 ng/mL
[1]; [4]
  concentration at 0.083 h: 2390 ng/mL
  concentration at 0.25 h: 578 ng/mL
  concentration at 0.5 h: 220 ng/mL
[1]; po, 10 mg/kg, 0.25 h
  Tucaresol concentration, Mean: 972 ng/mL
[1]; po, 10 mg/kg, 0.5 h
  Tucaresol concentration, Mean: 1398 ng/mL
[1]; po, 10 mg/kg, 1 h
  Tucaresol concentration, Mean: 915 ng/mL
[1]; po, 10 mg/kg, 2 h
  Tucaresol concentration, Mean: 532 ng/mL
[1]; po, 10 mg/kg, 4 h
  Tucaresol concentration, Mean: 390 ng/mL
[1]; po, 10 mg/kg, 8 h
  Tucaresol concentration, Mean: 241 ng/mL
[1]; po, 10 mg/kg, 24 h
  Tucaresol concentration, Mean: 12.3 ng/mL
[1]; po, 10 mg/kg, C02 concentration
  concentration at 0.5 h: 59.1 ng/mL

## O=Cc1c(O)cccc1OCc1ccc(C(=O)O)cc1 [Tucaresol]
[2]; human, in vivo, 2000 mg
  half-life: 222 h
[2]; human, in vivo, 2800 mg
  Tmax: 7.5 h
  half-life: 223 h
[2]; human, plasma, 200 mg, Cmax, single dose 200 mg, single subjects
  Cmax: 9900 ng/mL
[2]; human, plasma, 200 mg, tmax, single dose 200 mg, single subjects
  Tmax: 5 h
[2]; human, plasma, 400 mg, AUC, single dose 400 mg, single subjects
  AUC: 2830 µg·h/mL
[2]; human, plasma, 400 mg, Cmax, single dose 400 mg, single subjects
  Cmax: 16600 ng/mL
[2]; human, plasma, 400 mg, t1/2,z, single dose 400 mg, single subjects
  half-life: 133 h
[2]; human, plasma, 400 mg, tmax, single dose 400 mg, single subjects
  Tmax: 4.03 h
[2]; human, plasma, 800 mg, AUC, single dose 800 mg, single subjects
  AUC: 4890 µg·h/mL
[2]; human, plasma, 800 mg, Cmax, single dose 800 mg, single subjects
  Cmax: 28300 ng/mL
[2]; human, plasma, 800 mg, t1/2,z, single dose 800 mg, single subjects
  half-life: 134 h
[2]; human, plasma, 800 mg, tmax, single dose 800 mg, single subjects
  Tmax: 4 h
[2]; human, plasma, 1200 mg, AUC, Mean, single dose 1200 mg
  AUC: 8860 µg·h/mL
[2]; human, plasma, 1200 mg, Cmax, Mean, single dose 1200 mg
  Cmax: 38400 ng/mL
[2]; human, plasma, 1200 mg, Cmax, single dose 1200 mg, single subjects
  Cmax: 40400 ng/mL
[2]; human, plasma, 1200 mg, t1/2,z, Mean, single dose 1200 mg
  half-life: 195 h
[2]; human, plasma, 1200 mg, tmax, Mean, single dose 1200 mg
  Tmax: 6.5 h
[2]; human, plasma, 1200 mg, tmax, single dose 1200 mg, single subjects
  Tmax: 8 h
[2]; human, plasma, 2000 mg, AUC, Mean, single dose 2000 mg
  AUC: 14800 µg·h/mL
[2]; human, plasma, 2000 mg, AUC, single dose 2000 mg, single subjects
  AUC: 16300 µg·h/mL
[2]; human, plasma, 2000 mg, Cmax, Mean, single dose 2000 mg
  Cmax: 58600 ng/mL
[2]; human, plasma, 2000 mg, Cmax, single dose 2000 mg, single subjects
  Cmax: 60800 ng/mL
[2]; human, plasma, 2000 mg, t1/2,z, Mean, single dose 2000 mg
  half-life: 229 h
[2]; human, plasma, 2000 mg, t1/2,z, single dose 2000 mg, single subjects
  half-life: 278 h
[2]; human, plasma, 2000 mg, tmax, Mean, single dose 2000 mg
  Tmax: 5.5 h
[2]; human, plasma, 2000 mg, tmax, single dose 2000 mg, single subjects
  Tmax: 6 h
[2]; human, plasma, 2800 mg, AUC, Mean, single dose 2800 mg
  AUC: 16900 µg·h/mL
[2]; human, plasma, 2800 mg, AUC, single dose 2800 mg, single subjects
  AUC: 12900 µg·h/mL
[2]; human, plasma, 2800 mg, Cmax, Mean, single dose 2800 mg
  Cmax: 73700 ng/mL
[2]; human, plasma, 2800 mg, Cmax, single dose 2800 mg, single subjects
  Cmax: 56600 ng/mL
[2]; human, plasma, 2800 mg, t1/2,z, single dose 2800 mg, single subjects
  half-life: 232 h
[2]; human, plasma, 2800 mg, tmax, single dose 2800 mg, single subjects
  Tmax: 6 h
[2]; human, plasma, 3600 mg, AUC, Mean, single dose 3600 mg
  AUC: 26600 µg·h/mL
[2]; human, plasma, 3600 mg, AUC, single dose 3600 mg, single subjects
  AUC: 25400 µg·h/mL
[2]; human, plasma, 3600 mg, Cmax, Mean, single dose 3600 mg
  Cmax: 95800 ng/mL
[2]; human, plasma, 3600 mg, Cmax, single dose 3600 mg, single subjects
  Cmax: 81700 ng/mL
[2]; human, plasma, 3600 mg, t1/2,z, Mean, single dose 3600 mg
  half-life: 289 h
[2]; human, plasma, 3600 mg, t1/2,z, single dose 3600 mg, single subjects
  half-life: 291 h
[2]; human, plasma, 3600 mg, tmax, Mean, single dose 3600 mg
  Tmax: 10 h
[2]; human, plasma, 3600 mg, tmax, single dose 3600 mg, single subjects
  Tmax: 6.08 h
[2]; plasma, single dose 200 mg, single subjects
  Cmax: 11100 ng/mL
[2]; [5]
  AUC: 3562 µg·h/mL
  CL0: 2.35 mL/min and 1.86 mL/min
  Cmax: 19600 ng/mL
  Tmax: 3.00 h
  t1/2,z: 190 h
[2]; [6]
  AUC: 5759 µg·h/mL
  CL0: 2.72 mL/min and 2.31 mL/min
  Cmax: 36500 ng/mL
  Tmax: 4.08 h
  t1/2,z: 126 h
[2]; plasma, single dose 1200 mg
  CL0, Mean: 2.40 mL/min
[2]; [7]
  AUC: 12103 µg·h/mL and 9180 µg·h/mL and 5987 µg·h/mL and 8161 µg·h/mL
  CL0: 1.65 mL/min and 2.17 mL/min and 3.33 mL/min and 2.44 mL/min
  Cmax: 40100 ng/mL and 39300 ng/mL and 33700 ng/mL
  t1/2,z: 252 h and 192 h and 123 h and 215 h
[2]; plasma, single dose 2000 mg
  CL0, Mean: 2.27 mL/min
[2]; [8]
  AUC: 16487 µg·h/mL and 14010 µg·h/mL and 12455 µg·h/mL
  CL0: 2.04 mL/min and 2.01 mL/min and 2.37 mL/min and 2.67 mL/min
  Cmax: 59300 ng/mL and 57100 ng/mL
  t1/2,z: 207 h and 209 h
[2]; plasma, single dose 2800 mg
  CL0, Mean: 2.85 mL/min
[2]; [9]
  AUC: 20871 µg·h/mL and 15635 µg·h/mL and 18018 µg·h/mL
  CL0: 3.61 mL/min and 2.23 mL/min and 2.97 mL/min and 2.58 mL/min
  Cmax: 87700 ng/mL and 91400 ng/mL and 59300 ng/mL
  Tmax: 12.00 h
  t1/2,z: 240 h and 178 h and 241 h
[2]; plasma, single dose 3600 mg
  CL0, Mean: 2.26 mL/min
[2]; [10]
  AUC: 27818 µg·h/mL and 24131 µg·h/mL and 29116 µg·h/mL
  CL0: 2.36 mL/min and 2.15 mL/min and 2.48 mL/min and 2.05 mL/min
  Cmax: 86300 ng/mL and 80300 ng/mL and 134700 ng/mL
  t1/2,z: 329 h and 265 h and 268 h
[1]
  AUClast/D: 825 ng·h/mL per mg/kg
  F: 75.0%
  T1/2: 4.67 h
  Tmax: 0.250 h
[1]; [11]
  concentration at 0.083 h: 1360 ng/mL
  concentration at 0.25 h: 1240 ng/mL
  concentration at 0.5 h: 972 ng/mL
  concentration at 1 h: 623 ng/mL
  concentration at 2 h: 473 ng/mL
  concentration at 4 h: 122 ng/mL
  concentration at 8 h: 73.6 ng/mL
  concentration at 24 h: 12 ng/mL
[1]; [12]
  concentration at 0.083 h: 1890 ng/mL
  concentration at 0.25 h: 1330 ng/mL
  concentration at 0.5 h: 985 ng/mL
  concentration at 1 h: 707 ng/mL
  concentration at 2 h: 421 ng/mL
  concentration at 4 h: 115 ng/mL
  concentration at 8 h: 73.4 ng/mL
  concentration at 24 h: 9.5 ng/mL
[1]; po, 10 mg/kg, 8 h
  Tucaresol concentration: 164* ng/mL
[1]; [13]
  concentration at 0.25 h: 2930 ng/mL
  concentration at 0.5 h: 2770 ng/mL
  concentration at 1 h: 1870 ng/mL
  concentration at 2 h: 822 ng/mL
  concentration at 4 h: 603 ng/mL
  concentration at 8 h: 185 ng/mL
  concentration at 24 h: 26.3 ng/mL
[1]; [14]
  concentration at 0.25 h: 3040 ng/mL
  concentration at 0.5 h: 2410 ng/mL
  concentration at 1 h: 1750 ng/mL
  concentration at 2 h: 881 ng/mL
  concentration at 4 h: 614 ng/mL
  concentration at 8 h: 190 ng/mL
  concentration at 24 h: 26 ng/mL
[1]; Tucaresol PO 10 mg/kg, 8 h, single mice, read-out: Tucaresol concentration
  concentration at 8 h: 222 ng/mL
